Activity data for one molecule are collected here from ChEMBL document CHEMBL5316328, “Discovery of AXL Degraders with Improved Potencies in Triple-Negative Breast Cancer (TNBC) Cells” (J Med Chem, 2023).

The structures appear in SMILES notation. Activity calls are given as the source filed them. The calls are words filed in the database; no cut-off is given here.

Assay [1] addresses Protein cereblon/Tyrosine-protein kinase receptor UFO (Homo sapiens, UniProt P30530+Q96SW2). As to the kind of experiment: PROTAC activity at CRBN/AXL in human MDA-MB-231 cells assessed as induction of AXL degradation at 40 nM incubated for 18 to 24 hrs by Western blot analysis. Particulars: time 18-24 hrs. The assay is classed as cell-based. On the technique in general: In western blotting, separated proteins are transferred to a membrane and probed.

Assay [2] concerns MDA-MB-231. As to the kind of experiment: Induction of apoptosis in human MDA-MB-231 cells assessed as necrotic cells at 100 nM incubated for 48 hrs by Annexin V-PE staining based flow cytometric analysis (reference value: 2.64 to 3.23%). The assay is classed as functional. Background: A flow cytometer gives signals particle by particle.
Assay [3] relates to MDA-MB-231. Briefly: Induction of apoptosis in human MDA-MB-231 cells assessed as early apoptotic cells at 300 nM incubated for 48 hrs by Annexin V-PE staining based flow cytometric analysis (reference value: 3.95 to 3.74%). The assay is classed as functional.

Protein cereblon/Tyrosine-protein kinase receptor UFO, sequence (P30530 26-894 limits assumed): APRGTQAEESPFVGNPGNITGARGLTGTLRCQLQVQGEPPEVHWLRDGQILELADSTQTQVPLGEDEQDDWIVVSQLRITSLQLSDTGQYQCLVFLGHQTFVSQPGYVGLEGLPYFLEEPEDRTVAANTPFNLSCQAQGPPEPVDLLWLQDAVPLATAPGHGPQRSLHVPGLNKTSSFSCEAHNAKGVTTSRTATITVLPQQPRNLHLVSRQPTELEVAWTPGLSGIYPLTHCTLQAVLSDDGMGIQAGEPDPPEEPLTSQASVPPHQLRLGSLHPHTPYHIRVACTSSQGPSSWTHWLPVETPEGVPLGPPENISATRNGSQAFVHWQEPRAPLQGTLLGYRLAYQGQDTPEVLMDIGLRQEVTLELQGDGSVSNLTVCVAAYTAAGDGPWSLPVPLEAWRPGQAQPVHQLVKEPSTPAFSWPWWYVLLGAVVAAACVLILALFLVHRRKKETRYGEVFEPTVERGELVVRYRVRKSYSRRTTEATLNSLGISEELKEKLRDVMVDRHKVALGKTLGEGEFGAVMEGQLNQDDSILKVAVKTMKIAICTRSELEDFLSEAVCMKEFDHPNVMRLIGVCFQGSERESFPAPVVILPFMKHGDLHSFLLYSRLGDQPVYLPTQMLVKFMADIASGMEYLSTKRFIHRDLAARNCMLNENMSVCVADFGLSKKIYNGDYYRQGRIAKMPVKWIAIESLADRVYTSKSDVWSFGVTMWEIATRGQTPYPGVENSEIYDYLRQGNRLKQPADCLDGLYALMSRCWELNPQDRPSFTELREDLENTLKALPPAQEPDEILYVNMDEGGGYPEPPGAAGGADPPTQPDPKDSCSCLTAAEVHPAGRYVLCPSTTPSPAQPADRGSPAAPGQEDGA
Protein cereblon/Tyrosine-protein kinase receptor UFO, sequence (Q96SW2 whole entry partner): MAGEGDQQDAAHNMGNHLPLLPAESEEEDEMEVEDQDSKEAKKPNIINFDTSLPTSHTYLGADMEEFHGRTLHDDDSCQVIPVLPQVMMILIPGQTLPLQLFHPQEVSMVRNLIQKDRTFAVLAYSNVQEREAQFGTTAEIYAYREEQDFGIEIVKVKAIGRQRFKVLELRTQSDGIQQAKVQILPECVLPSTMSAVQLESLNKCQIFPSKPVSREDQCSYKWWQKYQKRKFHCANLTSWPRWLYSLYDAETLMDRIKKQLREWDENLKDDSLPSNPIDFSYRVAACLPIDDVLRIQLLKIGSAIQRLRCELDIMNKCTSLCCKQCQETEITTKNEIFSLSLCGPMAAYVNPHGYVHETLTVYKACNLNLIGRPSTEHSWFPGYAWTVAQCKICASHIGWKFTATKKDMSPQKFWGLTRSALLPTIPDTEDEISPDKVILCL

Regarding `CCc1ccc2c(c1)c(=O)c(C(=O)Nc1ccc(Oc3ncnc4cc(OCCCCCC(=O)Nc5ccc6c(c5)CN(C5CCC(=O)NC5=O)C6=O)c(OC)cc34)c(F)c1)c(C)n2C` (stereo not drawn), the outcome in assay [1] was Active. For the same molecule, the Activity with MDA-MB-231 [2] is 1.17%; in the assay with MDA-MB-231 [3], 20.49%.
